{
  "source": "paper PMC11144398",
  "about": "“Crizotinib inhibits the metabolism of tramadol by non-competitive suppressing the activities of CYP2D1 and CYP3A2” (PeerJ, 2024)",
  "key": {"[1]": {"test_system": "tramadol metabolism (O-desmethyl tramadol production) in rat liver microsomes", "experiment": "Liver microsomal incubation assay: inhibition of tramadol metabolism (O-desmethyl tramadol production) in RLM", "assay_type": "in vitro ADME", "settings": "rat, tramadol 60 µM", "description": "(§1) All the substance meet the requirements for analysis.\n(§2) To obtain the Michaelis kinetic parameters of tramadol in RLM and HLM, a 200 µL incubation system was established containing 2 µL RLM or HLM (0.2 mg/mL), 186 µL 1xPBS buffer (pH = 7.4), 2 µL tramadol (10–500 µM), and 10 µL NADPH (1 mM). The mixture was pre-incubated for 5 min without NADPH in a water bath shaking at 37 °C. Then, NADPH was added to initiate the reaction, and the mixture was incubated for another 30 min. The reaction was terminated by adding 400 µL of cold ACN and 20 µL of IS (500 ng/mL).\n(§3) For drug-interaction screening, 100 µM of each drug (1.6 µL) was added to the system, and added PBS to the final volume of 200 uL. Tramadol concentration was set at 60 µM according to the Km.\n(§4) To determine the half-maximal inhibitory concentration (IC50), the concentration of crizotinib was set at 0.01, 0.1, 1, 10, 25, 50, and 100 µM, while the concentration of tramadol was constant at 60 µM in RLM or 100 µM in HLM (according to Km).\n(§5) All data were presented as mean ± SD (standard deviation)."}, "[2]": {"test_system": "tramadol metabolism in rat liver microsomes (RLM)", "experiment": "Liver microsomal incubation assay: inhibition of tramadol metabolism (O-desmethyl tramadol production) in RLM", "assay_type": "in vitro ADME", "settings": "RLM", "description": "as §1, §2, §3, §4, §5"}, "[3]": {"experiment": "Pharmacokinetics of tramadol and O-desmethyl tramadol in SD rats with or without crizotinib", "settings": "single dose of crizotinib 45 mg/kg, tramadol 20 mg/kg", "text": "Ultra-performance liquid chromatography-tandem mass spectrometry (UPLC-MS/MS) was utilized to measure the concentration of both tramadol and O-desmethyl tramadol. Separation was achieved using a Waters Acquity UPLC BEH C18 column, with dimensions of 2.1 mm × 50 mm and 1.7-µm particle size (Waters Corp., Milford, MA, USA), and quantitation was completed using a Waters XEVO TQD triple quadruple mass spectrometer. The mobile phase was composed of 0.1% formic acid (A) and ACN (B), and the gradient elution was carried out with a flow rate of 0.4 mL/min, following the procedure: 90–10% A (0–1.4 min), 10–90% A (1.4–1.5 min), and 90% A (1.5–2.0 min). Positive mode was used to detect the analytes with the following transitions: m/z 264.2 →58.0, m/z 250.2 →58.2, and m/z 285.0 →154.0 for tramadol, O-desmethyl tramadol, and diazepam (used as an internal standard, IS), respectively. The collision energy was 20 V for tramadol and O-desmethyl tramadol, and 25 V for diazepam. The standard for tramadol and O-desmethyl tramadol were dissolved in a small amount of DMSO (the concentration was 1 mg/mL) then diluted with acetonitrile (the final concentration was 1 ng/mL–1,000 ng/mL). Diazepam was diluted with methanol gradually to 500 ng/mL).\nSD male rats (280 ± 15 g) were purchased from the Shanghai Animal Experimental Center. Before the experiment, the rats were kept in the animal room for two weeks with adequate water and food in order to adapt to the new environment. The room temperature was kept at 20–25 °C and the humidity was kept at 50%–65%. The change period of light and dark conditions was 12 h, which simulates the change of day and night. All animal experiments were approved by the Ethics Committee of Wenzhou Medical University (Approval number: xmsq2022-0621).\nGenerally speaking, only when at least five or more animals are involved in the experiment can the results be convincing. Thus, twenty SD rats were randomly divided into four groups with five animals per group: group A received a single dose of 20 mg/kg of tramadol; group B received a single dose of 45 mg/kg of crizotinib and 20 mg/kg of tramadol; group C received multiple doses of 0.5% carboxymethylcellulose sodium salt (CMC-Na) for 7 days and a single dose of 20 mg/kg of tramadol; and group D received multiple doses of 45 mg/kg of crizotinib for 7 days and a single dose of 20 mg/kg of tramadol. Prior to the experiment, all rats were fasted for 12 h but allowed free access to water. Once the experiment began, 0.5% CMC-Na and crizotinib were administered to groups C and D for 7 days, respectively, then to groups A and B on the last day of the experiment. After 30 min, all rats were orally administered 20 mg/kg of tramadol. Blood samples were collected from the tail vein at 5 min, 15 min, 30 min, 1 h, 2 h, 3 h, 4 h, 6 h, 8 h, 10 h, 12 h, and 24 h following tramadol administration. […] The samples were centrifuged at 2400 × g for 10 min to obtain serum. Each 50 µL serum was mixed with 150 µL ACN and 20 µL IS (500 ng/mL). After vortexing for 2 min and centrifugation at 16200 × g for 10 min at 4 °C, the supernatant was obtained, then we used UPLC-MS/MS analysis to detect the concentration of tramadol and O-desmethyl tramadol. After the experiment, all the animals were euthanized by 5% isoflurane inhalation anesthesia.\nThe Michaelis–Menten, IC50, and Lineweaver-Burk plots were generated using GraphPad Prism 6.0 software (GraphPad Software, Boston, MA, USA) with corresponding values for Km, IC50, and Ki (inhibition constant)."}, "[4]": {"test_system": "liver, kidney and small intestine", "experiment": "Morphological examination (H&E staining) of liver, kidney and small intestine", "assay_type": "in vivo, Sprague-Dawley rats", "settings": "crizotinib 45 mg/kg, single dose or 7 consecutive days; vs control group E", "description": "[…] […] The blood, liver, kidney, and small intestine were harvested within 10 min and flash-frozen in liquid nitrogen before being transferred to −80 °C for later use.\nAdditionally, the tissues were fixed in 10% formalin solution and embedded in paraffin. Hematoxylin-eosin (H&E) staining was performed on paraffin sections, which had been dewaxed, dehydrated, and sealed with neutral gum. Pannoramic MIDI was then used to observe the tissues."}, "[5]": {"test_system": "total CYP in rat liver microsomes", "experiment": "Carbon monoxide differential UV spectrophotometric quantification of total CYP", "assay_type": "in vitro ADME", "settings": "RLM from crizotinib-treated rats (45 mg/kg); CO quantitative method", "description": "Nine rats were randomly divided into three groups (n = 3): group E received 0.5% CMC-Na for 7 days; group F received 45 mg/kg crizotinib for 6 days; and group G received 45 mg/kg of crizotinib for 7 days. […] The blood, liver, kidney, and small intestine were harvested within 10 min and flash-frozen in liquid nitrogen before being transferred to −80 °C for later use.\nThe CO quantitative method was utilized to measure the total quantity of CYP in rat liver microsomes. The microsomes were transferred to a 1.5 mL centrifuge tube and CO gas was introduced for 60 s. Next, sodium dithionite powder was added and mixed thoroughly. After two minutes, the absorbance of the liquid was measured at 450 nm and 490 nm ultraviolet wavelengths using an ultraviolet and visible spectrophotometer to calculate the total amount of CYP."}},
  "data": [
    {"smiles": "C[C@@H](Oc1cc(-c2cnn(C3CCNCC3)c2)cnc1N)c1c(Cl)ccc(F)c1Cl", "note": "[crizotinib]", "values": [
      {"measurement": "inhibition at 30 min, 100 µM", "setting": "[1]; pH 7.4, RLM, 100 µM of each drug, vs control group, read-out: inhibitory rate on tramadol metabolism (production of O-desmethyl tramadol)", "result": 97.2, "unit": "%"},
      {"measurement": "IC50 at 30 min", "setting": "[1]; pH 7.4, RLM, crizotinib 0.01-100 µM", "result": "8.74 ± 0.18", "unit": "µM"},
      {"measurement": "inhibition mode of tramadol metabolism", "setting": "[2]; Lineweaver-Burk plot", "result": "non-competitive"},
      {"measurement": "Ki", "setting": "[2]; Lineweaver-Burk, crizotinib 0, 4, 8, 16 µM, tramadol 15-120 µM", "result": 4.17, "unit": "µM"},
      {"measurement": "effect on pharmacokinetic parameters of O-desmethyl tramadol", "setting": "[3]", "result": "no significant differences"},
      {"measurement": "changes in cell morphology, size, arrangement, nuclear morphology of liver, kidney and small intestine (H&E)", "setting": "[4]", "result": "no obvious changes"},
      {"measurement": "total amount of CYP", "setting": "[5]", "result": "decreased"}
    ]}
  ]
}
